{"source": "patent US8124793B2", "about": "“Derivatives of ethylene methanedisulfonate as cancer chemotherapeutic agents” (priority 2007, dated 2012)", "type_in_all_cases": "cell-based", "key": {"CCRF-CEM": {"tested_on": "CCRF-CEM", "assay": "NCI screen, growth of human tumor cells: Leukemia CCRF-CEM", "settings": "CCRF-CEM (Leukemia), 10^−4 molar", "summary_of_the_method": "(§1)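 Under the NCI protocol, every compound is profiled with sixty or more data points. Each point ties a cancer type and a molar screening concentration to a percent growth value.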"}, "HL-60 (TB)": {"tested_on": "HL-60 (TB)", "assay": "NCI screen, growth of human tumor cells: Leukemia HL-60 (TB)", "settings": "HL-60 (TB) (Leukemia), 10^−4 molar", "procedure": "(§2) In the NCI screening process, each compound was tested and described by a minimum of 60 data points. The test data include, but are not limited to the type of cancer, the molar concentration used in the screen, and the percent growth of the cancer. In some cases, NMR and elemental analysis were used for structural assignment."}, "MOLT-4": {"tested_on": "MOLT-4", "assay": "NCI screen, growth of human tumor cells: Leukemia MOLT-4", "settings": "MOLT-4 (Leukemia), 10^−4 molar", "summary_of_the_method": "as §1"}, "RPMI-8226": {"tested_on": "RPMI-8226", "assay": "NCI screen, growth of human tumor cells: Leukemia RPMI-8226", "settings": "RPMI-8226 (Leukemia), 10^−4 molar", "summary_of_the_method": "as §1"}, "SR": {"tested_on": "SR", "assay": "NCI screen, growth of human tumor cells: Leukemia SR", "settings": "SR (Leukemia), 10^−4 molar", "summary_of_the_method": "as §1"}, "HOP-62": {"tested_on": "HOP-62", "assay": "NCI screen, growth of human tumor cells: Non-Small Cell Lung HOP-62", "summary_of_the_method": "as §1"}, "NCI-H522": {"tested_on": "NCI-H522", "assay": "NCI screen, growth of human tumor cells: Non-Small Cell Lung NCI-H522", "settings": "NCI-H522 (Non-Small Cell Lung), 10^−4 molar", "summary_of_the_method": "as §1"}, "NCI-H23": {"tested_on": "NCI-H23", "assay": "NCI screen, growth of human tumor cells: Non-Small Cell Lung NCI-H23", "settings": "NCI-H23 (Non-Small Cell Lung), 10^−4 molar", "summary_of_the_method": "as §1"}, "HCT-116": {"tested_on": "HCT-116", "assay": "NCI screen, growth of human tumor cells: Colon Cancer HCT-116", "settings": "HCT-116 (Colon Cancer), 10^−4 molar", "summary_of_the_method": "as §1"}, "HCT-15": {"tested_on": "HCT-15", "assay": "NCI screen, growth of human tumor cells: Colon Cancer HCT-15", "settings": "HCT-15 (Colon Cancer), 10^−4 molar", "summary_of_the_method": "as §1"}, "KM12": {"tested_on": "KM12", "assay": "NCI screen, growth of human tumor cells: Colon Cancer KM12", "settings": "KM12 (Colon Cancer), 10^−4 molar", "summary_of_the_method": "as §1"}, "SF-268": {"tested_on": "SF-268", "assay": "NCI screen, growth of human tumor cells: CNS Cancer SF-268", "summary_of_the_method": "as §1"}, "SF-295": {"tested_on": "SF-295", "assay": "NCI screen, growth of human tumor cells: CNS Cancer SF-295", "summary_of_the_method": "as §1"}, "SF-539": {"tested_on": "SF-539", "assay": "NCI screen, growth of human tumor cells: CNS Cancer SF-539", "summary_of_the_method": "as §1"}, "SNB-75": {"tested_on": "SNB-75", "assay": "NCI screen, growth of human tumor cells: CNS Cancer SNB-75", "settings": "SNB-75 (CNS Cancer), 10^−4 molar", "summary_of_the_method": "as §1"}, "U-251": {"tested_on": "U-251", "assay": "NCI screen, growth of human tumor cells: CNS Cancer U-251", "settings": "U-251 (CNS Cancer), 10^−4 molar", "summary_of_the_method": "as §1"}, "LOXIMVI": {"tested_on": "LOXIMVI", "assay": "NCI screen, growth of human tumor cells: Melanoma LOXIMVI", "settings": "LOXIMVI (Melanoma), 10^−4 molar", "summary_of_the_method": "as §1"}, "SK-MEL-2": {"tested_on": "SK-MEL-2", "assay": "NCI screen, growth of human tumor cells: Melanoma SK-MEL-2", "settings": "SK-MEL-2 (Melanoma), 10^−4 molar", "summary_of_the_method": "as §1"}, "UACC-62": {"tested_on": "UACC-62", "assay": "NCI screen, growth of human tumor cells: Melanoma UACC-62", "summary_of_the_method": "as §1"}, "SK-OV-3": {"tested_on": "SK-OV-3", "assay": "NCI screen, growth of human tumor cells: Ovarian Cancer SK-OV-3", "settings": "SK-OV-3 (Ovarian Cancer), 10^−4 molar", "procedure": "as §2"}, "OVCAR-3": {"tested_on": "OVCAR-3", "assay": "NCI screen, growth of human tumor cells: Ovarian Cancer OVCAR-3", "settings": "OVCAR-3 (Ovarian Cancer), 10^−4 molar", "summary_of_the_method": "as §1"}, "OVCAR-4": {"tested_on": "OVCAR-4", "assay": "NCI screen, growth of human tumor cells: Ovarian Cancer OVCAR-4", "settings": "OVCAR-4 (Ovarian Cancer), 10^−4 molar", "summary_of_the_method": "as §1"}, "786-0": {"tested_on": "786-0", "assay": "NCI screen, growth of human tumor cells: Renal Cancer 786-0", "settings": "786-0 (Renal Cancer), 10^−4 molar", "summary_of_the_method": "as §1"}, "ACHN": {"tested_on": "ACHN", "assay": "NCI screen, growth of human tumor cells: Renal Cancer ACHN", "settings": "ACHN (Renal Cancer), 10^−4 molar", "summary_of_the_method": "as §1"}, "RXF-393": {"tested_on": "RXF-393", "assay": "NCI screen, growth of human tumor cells: Renal Cancer RXF-393", "settings": "RXF-393 (Renal Cancer), 10^−4 molar", "summary_of_the_method": "as §1"}, "SN12C": {"tested_on": "SN12C", "assay": "NCI screen, growth of human tumor cells: Renal Cancer SN12C", "settings": "SN12C (Renal Cancer), 10^−4 molar", "summary_of_the_method": "as §1"}, "CAKI-1": {"tested_on": "CAKI-1", "assay": "NCI screen, growth of human tumor cells: Renal Cancer CAKI-1", "settings": "CAKI-1 (Renal Cancer), 10^−4 molar", "summary_of_the_method": "as §1"}, "MCF 7": {"tested_on": "MCF 7", "assay": "NCI screen, growth of human tumor cells: Breast Cancer MCF 7", "settings": "MCF 7 (Breast Cancer), 10^−4 molar", "summary_of_the_method": "as §1"}, "MCF7/ADR-RES": {"tested_on": "MCF7/ADR-RES", "assay": "NCI screen, growth of human tumor cells: Breast Cancer MCF7/ADR-RES", "settings": "MCF7/ADR-RES", "summary_of_the_method": "as §1"}, "BT-549": {"tested_on": "BT-549", "assay": "NCI screen, growth of human tumor cells: Breast Cancer BT-549", "summary_of_the_method": "as §1"}, "HS 578T": {"tested_on": "HS 578T", "assay": "NCI screen, growth of human tumor cells: Breast Cancer HS 578T", "settings": "HS 578T (Breast Cancer), 10^−4 molar", "summary_of_the_method": "as §1"}, "T-47D": {"tested_on": "T-47D", "assay": "NCI screen, growth of human tumor cells: Breast Cancer T-47D", "settings": "T-47D (Breast Cancer), 10^−4 molar", "procedure": "as §2"}, "human cancer cells": {"tested_on": "human cancer cells", "assay": "NCI screen summary over the cancers tested (negative growth of human cancer cells)", "settings": "10^−4 M conc.; cancers with negative growth / cancers tested", "procedure": "as §2\nThe derivatives in the tables are grouped using the same category as in the tables 1-6."}}}
{"compound": "N#CCCC1(CCC#N)S(=O)(=O)OCCOS1(=O)=O", "note": "[NSC 665941]", "values": [{"measurement": "percent of growth of human tumor cells", "setting": "CCRF-CEM", "value": 5, "unit": "%"}, {"measurement": "percent of growth of human tumor cells", "setting": "HL-60 (TB)", "value": "−17", "unit": "%"}, {"measurement": "percent of growth of human tumor cells", "setting": "MOLT-4", "value": 6, "unit": "%"}, {"measurement": "percent of growth of human tumor cells", "setting": "RPMI-8226", "value": 24, "unit": "%"}, {"measurement": "percent of growth of human tumor cells", "setting": "SR", "value": 10, "unit": "%"}, {"measurement": "% Growth", "setting": "HOP-62; HOP-62, 10^−4 molar", "value": 16, "unit": "%"}, {"measurement": "% Growth", "setting": "HOP-62; HOP-62, 10^−5 molar", "value": 46, "unit": "%"}, {"measurement": "% Growth", "setting": "HOP-62; HOP-62, 10^−6 molar", "value": 48, "unit": "%"}, {"measurement": "% Growth", "setting": "HOP-62; HOP-62, 10^−7 molar", "value": 25, "unit": "%"}, {"measurement": "% Growth", "setting": "HOP-62; HOP-62, 10^−8 molar", "value": 25, "unit": "%"}, {"measurement": "percent of growth of human tumor cells", "setting": "NCI-H522", "value": 18, "unit": "%"}, {"measurement": "percent of growth of human tumor cells", "setting": "NCI-H23", "value": 25, "unit": "%"}, {"measurement": "percent of growth of human tumor cells", "setting": "HCT-116", "value": 26, "unit": "%"}, {"measurement": "percent of growth of human tumor cells", "setting": "HCT-15", "value": 27, "unit": "%"}, {"measurement": "percent of growth of human tumor cells", "setting": "KM12", "value": 27, "unit": "%"}, {"measurement": "% Growth", "setting": "SF-268; SF-268, 10^−4 molar", "value": 24, "unit": "%"}, {"measurement": "% Growth", "setting": "SF-268; SF-268, 10^−5 molar", "value": 48, "unit": "%"}, {"measurement": "% Growth", "setting": "SF-295; SF-295, 10^−4 molar", "value": 7, "unit": "%"}, {"measurement": "% Growth", "setting": "SF-295; SF-295, 10^−5 molar", "value": 47, "unit": "%"}, {"measurement": "% Growth", "setting": "SF-539; SF-539, 10^−4 molar", "value": "−48", "unit": "%"}, {"measurement": "% Growth", "setting": "SF-539; SF-539, 10^−5 molar", "value": 47, "unit": "%"}, {"measurement": "percent of growth of human tumor cells", "setting": "SNB-75", "value": 28, "unit": "%"}, {"measurement": "percent of growth of human tumor cells", "setting": "U-251", "value": 20, "unit": "%"}, {"measurement": "percent of growth of human tumor cells", "setting": "LOXIMVI", "value": 5, "unit": "%"}, {"measurement": "percent of growth of human tumor cells", "setting": "SK-MEL-2", "value": 26, "unit": "%"}, {"measurement": "% Growth", "setting": "UACC-62; UACC-62, 10^−4 molar", "value": 9, "unit": "%"}, {"measurement": "% Growth", "setting": "UACC-62; UACC-62, 10^−5 molar", "value": 49, "unit": "%"}, {"measurement": "percent of growth of human tumor cells", "setting": "SK-OV-3", "value": 28, "unit": "%"}, {"measurement": "percent of growth of human tumor cells", "setting": "OVCAR-3", "value": 12, "unit": "%"}, {"measurement": "percent of growth of human tumor cells", "setting": "OVCAR-4", "value": 4, "unit": "%"}, {"measurement": "percent of growth of human tumor cells", "setting": "786-0", "value": 6, "unit": "%"}, {"measurement": "percent of growth of human tumor cells", "setting": "ACHN", "value": 13, "unit": "%"}, {"measurement": "percent of growth of human tumor cells", "setting": "RXF-393", "value": 23, "unit": "%"}, {"measurement": "percent of growth of human tumor cells", "setting": "SN12C", "value": 15, "unit": "%"}, {"measurement": "percent of growth of human tumor cells", "setting": "CAKI-1", "value": 28, "unit": "%"}, {"measurement": "percent of growth of human tumor cells", "setting": "MCF 7", "value": 18, "unit": "%"}, {"measurement": "% Growth", "setting": "MCF7/ADR-RES; 10^−4 molar", "value": 1, "unit": "%"}, {"measurement": "% Growth", "setting": "MCF7/ADR-RES; 10^−5 molar", "value": 63, "unit": "%"}, {"measurement": "% Growth", "setting": "MCF7/ADR-RES; 10^−6 molar", "value": 69, "unit": "%"}, {"measurement": "% Growth", "setting": "MCF7/ADR-RES; 10^−7 molar", "value": 68, "unit": "%"}, {"measurement": "% Growth", "setting": "MCF7/ADR-RES; 10^−8 molar", "value": 56, "unit": "%"}, {"measurement": "percent of growth of human tumor cells", "setting": "BT-549; BT-549 (Breast Cancer), 10^−4 molar", "value": 18, "unit": "%"}, {"measurement": "% Growth", "setting": "BT-549; BT-549, 10^−4 molar", "value": 18, "unit": "%"}, {"measurement": "% Growth", "setting": "BT-549; BT-549, 10^−5 molar", "value": 33, "unit": "%"}, {"measurement": "percent of growth of human tumor cells", "setting": "HS 578T", "value": "−8", "unit": "%"}, {"measurement": "percent of growth of human tumor cells", "setting": "T-47D", "value": 25, "unit": "%"}, {"measurement": "Percentage of cancers showing negative growth cancers tested", "setting": "human cancer cells", "value": "10^−4 M conc. = 3/32 = 9%"}]}
